# Data as given in US20210236442A1, “METHODS FOR DELAYING OCCURRENCE OF NEW-ONSET TYPE 2 DIABETES AND FOR SLOWING PROGRESSION OF AND TREATING TYPE 2 DIABETES” (Dalcor Pharma UK Ltd., Leatherhead, Zug Branch, priority 2018, published 2021).
# Experiments:
# Format in all cases: in vivo, human
# [1] = system: patients enrolled in the dal-OUTCOMES trial; assay: Cox proportional hazards regression of SNP rs1967309 for association with cardiovascular events per treatment arm (dal-OUTCOMES); conditions: for Event (cardiovascular events): 600 mg dalcetrapib arm; for HR (rs1967309, cardiovascular events) / β genetic (rs1967309, cardiovascular events): dalcetrapib arm
# From the text: Inclusion Criteria: Patients 45 years of age or older who provided written informed consent were eligible to participate if they had been hospitalized for an acute coronary syndrome characterized by elevated cardiac biomarkers, with symptoms of acute myocardial ischemia, ischemic electrocardiographic abnormalities that were new or presumed to be new, or loss of viable myocardium on imaging. Patients without elevated cardiac biomarkers were eligible to participate if symptoms of acute myocardial ischemia were accompanied by electrocardiographic changes that were new or presumed to be new and by additional evidence of obstructive coronary disease. […] However, no specific statin agent or dose was specified, and patients were not excluded if their LDL cholesterol level remained above 100 mg per deciliter. There were no exclusions on the basis of patients' HDL cholesterol level. […] The patients began a single-blind placebo-based run-in period of approximately 4 to 6 weeks to allow for patients to stabilize and for completion of any planned revascularization procedures. At the end of the run-in period, patients in stable condition were randomized in a 1:1 ratio to 600 mg of dalcetrapib or placebo on top of evidence-based medical care for acute cardiovascular syndrome (“ACS”). The descriptive statistics and analyses were performed using SAS 9.4 software.
# Cox proportional hazards regression of single nucleotide polymorphism (“SNP”) rs1967309 was conducted for association with cardiovascular events in each treatment arm and in patients with a diagnosis of diabetic at baseline in the dal-OUTCOMES trial and in non-diabetic patients separately without controlling for any covariate, as shown in Table 4. Cox proportional hazards regression of SNP rs1967309 was conducted for association with cardiovascular events in each treatment arm and in diabetic and non-diabetic patients separately controlling for age and sex, as shown in Table 5.
# [2] = system: patients of the dal-OUTCOMES trial; assay: GLM of dalcetrapib treatment arm for whole-blood HbA1c at 6, 12 and 24 months
# Description: The effect of dalcetrapib on whole-blood HbA1c levels irrespective of genotype and the impact of dalcetrapib on risk of new onset diabetes were retrospectively assessed in patients of the dal-OUTCOMES trial. The descriptive statistics and analyses were performed using SAS 9.4 software. Diabetes at baseline was defined based on at least one of the following patient criteria: (1) diagnosis of diabetics at baseline in the dal-OUTCOMES trial; (2) whole-blood HbA1c level>=6.5% at baseline; (3) fasting glucose level>=7.0 mmol/L at baseline; and (4) use of diabetes medication at or before baseline. GLM results of the dalcetrapib treatment arm for whole-blood HbA1c at 6,12, and 24 months (“M06”, “M12” and “M24”, respectively) were obtained.
# [3] = system: patients enrolled in the dal-OUTCOMES trial; assay: Descriptive statistics of glucose and HbA1c, reported and change from baseline, by genotype and treatment arm; conditions: non-diabetic patients irrespective of rs1967309 genotype
# From the text: The effect of ADCY9 rs1967309 genotypes on patient HbA1C and glucose levels was retrospectively assessed in patients enrolled in the dal-OUTCOMES trial.
# Inclusion Criteria: Patients 45 years of age or older who provided written informed consent were eligible to participate if they had been hospitalized for an acute coronary syndrome characterized by elevated cardiac biomarkers, with symptoms of acute myocardial ischemia, ischemic electrocardiographic abnormalities that were new or presumed to be new, or loss of viable myocardium on imaging. Patients without elevated cardiac biomarkers were eligible to participate if symptoms of acute myocardial ischemia were accompanied by electrocardiographic changes that were new or presumed to be new and by additional evidence of obstructive coronary disease. […] However, no specific statin agent or dose was specified, and patients were not excluded if their LDL cholesterol level remained above 100 mg per deciliter. There were no exclusions on the basis of patients' HDL cholesterol level. […]
# Descriptive statistics of reported and change from baseline of glucose and HbA1C according to the genotype of the SNP rs1967309 were analyzed for each treatment arm and for diabetic and non-diabetic patients separately with non-parametric statistics.
# [4] = system: patients enrolled in the dal-OUTCOMES trial; assay: Cox proportional hazards regression of diabetes for association with cardiovascular events per rs1967309 genotype and treatment arm (dal-OUTCOMES); conditions: for Event (cardiovascular events) / HR (diabetes, cardiovascular events) / β diabetes (cardiovascular events): dalcetrapib arm
# From the text: Inclusion Criteria: Patients 45 years of age or older who provided written informed consent were eligible to participate if they had been hospitalized for an acute coronary syndrome characterized by elevated cardiac biomarkers, with symptoms of acute myocardial ischemia, ischemic electrocardiographic abnormalities that were new or presumed to be new, or loss of viable myocardium on imaging. Patients without elevated cardiac biomarkers were eligible to participate if symptoms of acute myocardial ischemia were accompanied by electrocardiographic changes that were new or presumed to be new and by additional evidence of obstructive coronary disease. […] However, no specific statin agent or dose was specified, and patients were not excluded if their LDL cholesterol level remained above 100 mg per deciliter. There were no exclusions on the basis of patients' HDL cholesterol level. […] The patients began a single-blind placebo-based run-in period of approximately 4 to 6 weeks to allow for patients to stabilize and for completion of any planned revascularization procedures. At the end of the run-in period, patients in stable condition were randomized in a 1:1 ratio to 600 mg of dalcetrapib or placebo on top of evidence-based medical care for acute cardiovascular syndrome (“ACS”). The descriptive statistics and analyses were performed using SAS 9.4 software. […]
# [5] = diabetic patients, controlling for age and sex
# [6] = diabetic patients, no covariate
# [7] = non-diabetic patients, controlling for age and sex
# [8] = non-diabetic patients, no covariate
# [9] = rs1967309 AA, controlling for age and sex
# [10] = rs1967309 AG, controlling for age and sex
# [11] = rs1967309 GG, controlling for age and sex
structure (smiles),measurement,setting,value
CCC(CC)CC1(C(=O)Nc2ccccc2SC(=O)C(C)C)CCCCC1 [dalcetrapib],SNP rs1967309 as predictor of cardiovascular events in the dalcetrapib arm,"[1]; diabetic and non-diabetic patients, with and without covariates, significance level of 5%",predictive of cardiovascular events
same,Event (cardiovascular events),"[1]; diabetic patients, Table 4",134
same,Event (cardiovascular events),"[1]; diabetic patients, Table 5",134
same,"HR (rs1967309, cardiovascular events)",[1]; [5],0.6631
same,"β genetic (rs1967309, cardiovascular events)",[1]; [5],−0.4108
same,"HR (rs1967309, cardiovascular events)",[1]; [6],0.6597
same,"β genetic (rs1967309, cardiovascular events)",[1]; [6],−0.4159
same,Event (cardiovascular events),"[1]; non-diabetic patients, Table 4",255
same,Event (cardiovascular events),"[1]; non-diabetic patients, Table 5",255
same,"HR (rs1967309, cardiovascular events)",[1]; [7],0.6366
same,"β genetic (rs1967309, cardiovascular events)",[1]; [7],−0.4516
same,"HR (rs1967309, cardiovascular events)",[1]; [8],0.6400
same,"β genetic (rs1967309, cardiovascular events)",[1]; [8],−0.4462
same,"β dalcetrapib, Ln(HbA1c)","[2]; All, HBA1C_M06, Table 12, adjustment not stated",−0.0137
same,"β dalcetrapib, Ln(HbA1c)","[2]; All, HBA1C_M06, first block, adjusted for baseline HbA1c",−0.0143
same,"β dalcetrapib, Ln(HbA1c)","[2]; All, HBA1C_M12, Table 12, adjustment not stated",−0.0152
same,"β dalcetrapib, Ln(HbA1c)","[2]; All, HBA1C_M12, first block, adjusted for baseline HbA1c",−0.0160
same,"β dalcetrapib, Ln(HbA1c)","[2]; All, HBA1C_M24, Table 12, adjustment not stated",−0.0170
same,"β dalcetrapib, Ln(HbA1c)","[2]; All, HBA1C_M24, first block, adjusted for baseline HbA1c",−0.0176
same,association of dalcetrapib treatment arm with whole-blood HbA1c levels,"[2]; M06, M12, M24, all patients combined and each rs1967309 genotype, with and without age and sex",associated with decrease in whole-blood HbA1c levels
same,"β dalcetrapib, Ln(HbA1c)","[2]; genotype = AA, HBA1C_M06, Table 12, adjustment not stated",−0.0192
same,"β dalcetrapib, Ln(HbA1c)","[2]; genotype = AA, HBA1C_M06, first block, adjusted for baseline HbA1c",−0.0196
same,"β dalcetrapib, Ln(HbA1c)","[2]; genotype = AA, HBA1C_M12, Table 12, adjustment not stated",−0.0112
same,"β dalcetrapib, Ln(HbA1c)","[2]; genotype = AA, HBA1C_M12, first block, adjusted for baseline HbA1c",−0.0116
same,"β dalcetrapib, Ln(HbA1c)","[2]; genotype = AA, HBA1C_M24, Table 12, adjustment not stated",−0.0172
same,"β dalcetrapib, Ln(HbA1c)","[2]; genotype = AA, HBA1C_M24, first block, adjusted for baseline HbA1c",−0.0171
same,"β dalcetrapib, Ln(HbA1c)","[2]; genotype = AG, HBA1C_M06, Table 12, adjustment not stated",−0.0113
same,"β dalcetrapib, Ln(HbA1c)","[2]; genotype = AG, HBA1C_M06, first block, adjusted for baseline HbA1c",−0.0123
same,"β dalcetrapib, Ln(HbA1c)","[2]; genotype = AG, HBA1C_M12, Table 12, adjustment not stated",−0.0143
same,"β dalcetrapib, Ln(HbA1c)","[2]; genotype = AG, HBA1C_M12, first block, adjusted for baseline HbA1c",−0.0156
same,"β dalcetrapib, Ln(HbA1c)","[2]; genotype = AG, HBA1C_M24, Table 12, adjustment not stated",−0.0139
same,"β dalcetrapib, Ln(HbA1c)","[2]; genotype = AG, HBA1C_M24, first block, adjusted for baseline HbA1c",−0.0153
same,"β dalcetrapib, Ln(HbA1c)","[2]; genotype = GG, HBA1C_M06, Table 12, adjustment not stated",−0.0145
same,"β dalcetrapib, Ln(HbA1c)","[2]; genotype = GG, HBA1C_M06, first block, adjusted for baseline HbA1c",−0.0145
same,"β dalcetrapib, Ln(HbA1c)","[2]; genotype = GG, HBA1C_M12, Table 12, adjustment not stated",−0.0185
same,"β dalcetrapib, Ln(HbA1c)","[2]; genotype = GG, HBA1C_M12, first block, adjusted for baseline HbA1c",−0.0186
same,"β dalcetrapib, Ln(HbA1c)","[2]; genotype = GG, HBA1C_M24, Table 12, adjustment not stated",−0.0214
same,"β dalcetrapib, Ln(HbA1c)","[2]; genotype = GG, HBA1C_M24, first block, adjusted for baseline HbA1c",−0.0210
same,"β dalcetrapib, Ln(HbA1c)","[2]; genotype_group = AA + AG, HBA1C_M06, Table 12, adjustment not stated",−0.0133
same,"β dalcetrapib, Ln(HbA1c)","[2]; genotype_group = AA + AG, HBA1C_M06, first block, adjusted for baseline HbA1c",−0.0141
same,"β dalcetrapib, Ln(HbA1c)","[2]; genotype_group = AA + AG, HBA1C_M12, Table 12, adjustment not stated",−0.0135
same,"β dalcetrapib, Ln(HbA1c)","[2]; genotype_group = AA + AG, HBA1C_M12, first block, adjusted for baseline HbA1c",−0.0146
same,"β dalcetrapib, Ln(HbA1c)","[2]; genotype_group = AA + AG, HBA1C_M24, Table 12, adjustment not stated",−0.0147
same,"β dalcetrapib, Ln(HbA1c)","[2]; genotype_group = AA + AG, HBA1C_M24, first block, adjusted for baseline HbA1c",−0.0157
same,"β dalcetrapib, Ln(HbA1c)","[2]; genotype_group = GG, HBA1C_M06, Table 12, adjustment not stated",−0.0145
same,"β dalcetrapib, Ln(HbA1c)","[2]; genotype_group = GG, HBA1C_M06, first block, adjusted for baseline HbA1c",−0.0145
same,"β dalcetrapib, Ln(HbA1c)","[2]; genotype_group = GG, HBA1C_M12, Table 12, adjustment not stated",−0.0185
same,"β dalcetrapib, Ln(HbA1c)","[2]; genotype_group = GG, HBA1C_M12, first block, adjusted for baseline HbA1c",−0.0186
same,"β dalcetrapib, Ln(HbA1c)","[2]; genotype_group = GG, HBA1C_M24, Table 12, adjustment not stated",−0.0214
same,"β dalcetrapib, Ln(HbA1c)","[2]; genotype_group = GG, HBA1C_M24, first block, adjusted for baseline HbA1c",−0.0210
same,mean ln(HbA1c) in the dalcetrapib treatment arm,"[2]; versus placebo arm, adjusting for baseline HbA1c",lower than in the placebo arm
same,HbA1c change from baseline compared to placebo,[3],greater reductions in HbA1c
same,whole-blood level of HbA1c with dalcetrapib treatment compared to placebo,[3],systematically lower
same,effect of dalcetrapib on cardiovascular events,[4]; AA patients with diabetes,cardiovascular protective effect
same,Event (cardiovascular events),"[4]; rs1967309 AA, Table 6",37
same,Event (cardiovascular events),"[4]; rs1967309 AA, Table 7",37
same,"HR (diabetes, cardiovascular events)",[4]; [9],1.6850
same,β diabetes (cardiovascular events),[4]; [9],0.5218
same,"HR (diabetes, cardiovascular events)","[4]; rs1967309 AA, no covariate",1.4330
same,β diabetes (cardiovascular events),"[4]; rs1967309 AA, no covariate",0.3597
same,Event (cardiovascular events),"[4]; rs1967309 AG, Table 6",176
same,Event (cardiovascular events),"[4]; rs1967309 AG, Table 7",176
same,"HR (diabetes, cardiovascular events)",[4]; [10],2.2217
same,β diabetes (cardiovascular events),[4]; [10],0.7983
same,"HR (diabetes, cardiovascular events)","[4]; rs1967309 AG, no covariate",2.3398
same,β diabetes (cardiovascular events),"[4]; rs1967309 AG, no covariate",0.8501
same,Event (cardiovascular events),"[4]; rs1967309 GG, Table 6",176
same,Event (cardiovascular events),"[4]; rs1967309 GG, Table 7",176
same,"HR (diabetes, cardiovascular events)",[4]; [11],1.6913
same,β diabetes (cardiovascular events),[4]; [11],0.5255
same,"HR (diabetes, cardiovascular events)","[4]; rs1967309 GG, no covariate",1.7772
same,β diabetes (cardiovascular events),"[4]; rs1967309 GG, no covariate",0.5750
